Measurements: article PMC9066185 (RSC Advances, 2019)

Biological target: xanthine oxidase from cow's milk (XO) (Bos taurus, UniProt P80457)
Test: uric acid formation at […] nm
Assay type: biochemical

Chain of xanthine oxidase from cow's milk (XO) (P80457 2-1332): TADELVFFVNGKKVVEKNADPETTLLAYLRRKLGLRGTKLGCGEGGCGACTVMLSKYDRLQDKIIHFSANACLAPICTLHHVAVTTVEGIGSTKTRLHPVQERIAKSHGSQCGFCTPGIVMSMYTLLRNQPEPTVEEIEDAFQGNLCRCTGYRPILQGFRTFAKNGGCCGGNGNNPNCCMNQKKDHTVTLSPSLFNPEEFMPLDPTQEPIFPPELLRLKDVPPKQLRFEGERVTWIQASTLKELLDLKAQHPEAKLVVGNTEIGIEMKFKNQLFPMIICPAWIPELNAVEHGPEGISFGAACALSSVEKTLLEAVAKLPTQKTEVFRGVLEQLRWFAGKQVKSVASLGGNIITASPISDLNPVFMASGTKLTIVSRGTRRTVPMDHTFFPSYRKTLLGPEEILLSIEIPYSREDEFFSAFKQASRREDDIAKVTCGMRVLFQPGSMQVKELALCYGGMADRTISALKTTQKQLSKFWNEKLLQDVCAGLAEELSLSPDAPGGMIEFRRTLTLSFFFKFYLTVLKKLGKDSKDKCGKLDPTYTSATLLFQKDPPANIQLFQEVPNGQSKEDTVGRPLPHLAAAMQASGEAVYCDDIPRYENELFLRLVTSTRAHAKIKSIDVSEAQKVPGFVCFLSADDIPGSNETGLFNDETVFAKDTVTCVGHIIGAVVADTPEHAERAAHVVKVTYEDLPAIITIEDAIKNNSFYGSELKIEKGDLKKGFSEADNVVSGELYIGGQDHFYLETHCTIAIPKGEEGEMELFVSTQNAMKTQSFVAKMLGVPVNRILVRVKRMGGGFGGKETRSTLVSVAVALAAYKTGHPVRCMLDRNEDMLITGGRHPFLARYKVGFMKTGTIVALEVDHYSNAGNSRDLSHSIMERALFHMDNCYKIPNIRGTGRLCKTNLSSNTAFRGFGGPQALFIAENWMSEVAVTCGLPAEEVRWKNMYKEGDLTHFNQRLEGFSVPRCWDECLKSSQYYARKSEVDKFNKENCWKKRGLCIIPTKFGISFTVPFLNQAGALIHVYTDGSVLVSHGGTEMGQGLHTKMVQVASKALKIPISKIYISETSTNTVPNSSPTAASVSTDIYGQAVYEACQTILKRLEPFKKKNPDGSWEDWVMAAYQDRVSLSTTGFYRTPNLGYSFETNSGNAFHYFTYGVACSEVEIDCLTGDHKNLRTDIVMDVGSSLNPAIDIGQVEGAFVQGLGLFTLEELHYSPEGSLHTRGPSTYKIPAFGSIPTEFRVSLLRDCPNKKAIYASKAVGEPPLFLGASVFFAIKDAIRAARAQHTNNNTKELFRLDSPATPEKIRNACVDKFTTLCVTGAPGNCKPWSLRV

IC50: 92.5 µM
SMILES: Oc1cc(O)c2c(c1)O[C@H](c1ccc(O)c(O)c1)[C@H](O)[C@H]2c1c(O)cc(O)c2c1O[C@H](c1ccc(O)c(O)c1)[C@@H](O)C2 [procyanidin B1, (−)-epicatechin-(4β,8)-(+)-catechin]
